Drawing on patent US8580832B2, “Substituted phenoxy aminothiazolones as estrogen related receptor-α modulators” (Janssen Pharmaceutica N.V., priority 2007, dated 2013), this text covers EC50 for 27 molecules.

Structures can show the parent of a compound that is named as a salt.

This assay addresses T1, ERR1 (also known as ERR-α or ERR-1) (Homo sapiens, UniProt P11474).
T1 construct: the ^6His-tagged-ERR1 LBD
T1 sequence (P11474 193-421 limits assumed): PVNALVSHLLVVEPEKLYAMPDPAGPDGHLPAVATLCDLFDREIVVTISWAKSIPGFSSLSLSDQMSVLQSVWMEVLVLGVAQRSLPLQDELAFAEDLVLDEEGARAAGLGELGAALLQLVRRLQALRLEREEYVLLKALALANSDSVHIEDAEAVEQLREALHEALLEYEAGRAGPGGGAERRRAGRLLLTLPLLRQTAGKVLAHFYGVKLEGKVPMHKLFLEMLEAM
Nature of the assay: TR-FRET assay: disruption of co-activator peptide binding to ERR1 LBD. To be noted: 6His-tagged ERR1 LBD 6 nM, GST-SRC-2 peptide 6 nM, 25° C., 4-18 hours; average of 3 independent experiments. The class given is biochemical. The method, then:
Time-Resolved Fluorescence Resonance Energy Transfer (TR-FRET) experiments were performed to examine the functional response of ERR1 (also known as ERR-α or ERR-1) ligands. The TR-FRET assay described herein relied on the conformation of ERR1 for binding to a co-activator peptide: when a test compound binds to ERR1 and alters its conformation, it can disrupt the binding of the co-activator peptide. The components of this homogeneous secondary assay included: the ^6His-tagged-ERR1 LBD, a GST-labeled-hSRC2 co-activator polypeptide and a fluorescent donor/acceptor pair from CIS bio international htrf/bioassays (Bedford, Mass.) using both an α-GST Europium Cryptate (Eu) label and an α^6His-XL665 (allophycocyanin) fluorophore.
For TR-FRET measurements, the reaction was buffered in 25 mM Tris pH 8, 2.5 mM Hepes, 20 mM KCl, 1 mM DTT, and 0.05 mg/mL BSA (-lipids). […] Reactions were allowed to reach equilibrium at 25° C. for 4-18 hours before collecting data on the Analyst from LJL Biosystems (Molecular Devices Sunnyvale, Calif.). […] Dose response curves were fitted using a hyperbolic equation and the data reported is the average of 3 independent experiments.
For orientation: In TR-FRET formats the signal depends on donor and acceptor labels being close together.

What is called EC50 is the concentration that produces a half-maximal response.

For `CC(C)c1ccccc1Oc1ccc(/C=C2\SC(N3CC(C(=O)O)C3)=NC2=O)cc1` [Example 118, 1-{5-[4-(2-Isopropyl-phenoxy)-benzylidene]-4-oxo-4,5-dihydro-thiazol-2-yl}-azetidine-3-carboxylic acid], the EC50 stood at 21 nM. Turning to `COc1cc(/C=C2\SC(N3CCNC(=O)C3)=NC2=O)ccc1Oc1ccc(C(N)=O)cc1C(F)(F)F` [Example 115, 4-{2-Methoxy-4-[4-oxo-2-(3-oxo-piperazin-1-yl)-4H-thiazol-5-ylidenemethyl]-phenoxy}-3-trifluoromethyl-benzamide], it took 89 nM to reach a half-maximal effect (EC50). For `COc1cc(/C=C2\SC(NCc3cc(F)cc(F)c3)=NC2=O)ccc1Oc1ccc(C#N)cc1C(F)(F)F` [Example 85, 4-{4-[2-(3,5-Difluoro-benzylamino)-4-oxo-4H-thiazol-5-ylidenemethyl]-2-methoxy-phenoxy}-3-trifluoromethyl-benzonitrile] the value was 57 nM.

As for `COC(=O)CNC1=NC(=O)/C(=C/c2ccc(Oc3ccc(C#N)cc3C(F)(F)F)c(OC)c2)S1` [Example 84, {5-[4-(4-Cyano-2-trifluoromethyl-phenoxy)-3-methoxy-benzylidene]-4-oxo-4,5-dihydro-thiazol-2-ylamino}-acetic acid methyl ester], the EC50 is 7 nM. For `COc1cc(/C=C2\SC(NCc3ccncc3)=NC2=O)ccc1Oc1ccc(C#N)cc1C(F)(F)F` [Compound 24, 4-(2-Methoxy-4-{4-oxo-2-[(pyridin-4-ylmethyl)-amino]-4H-thiazol-5-ylidenemethyl}-phenoxy)-3-trifluoromethyl-benzonitrile] the value was 16 nM.

With `O=C1CN(C2=NC(=O)/C(=C/c3ccc(Oc4ccc(Cl)cc4C(F)(F)F)c(F)c3)S2)CCN1` [Example 66, 4-{5-[4-(4-Chloro-2-trifluoromethyl-phenoxy)-3-fluoro-benzylidene]-4-oxo-4,5-dihydro-thiazol-2-yl}-piperazin-2-one], the midpoint of the response, the EC50, lay at 4 nM. With `COc1cc(/C=C2\SC(NCCc3cccnc3)=NC2=O)ccc1Oc1ccc(C#N)cc1C(F)(F)F` [Example 29, 4-{2-Methoxy-4-[4-oxo-2-(2-pyridin-3-yl-ethylamino)-4H-thiazol-5-ylidenemethyl]-phenoxy}-3-trifluoromethyl-benzonitrile] the figure was 12 nM; with `N#Cc1ccc(Oc2ccc(/C=C3\SC(N4CCCC(O)C4)=NC3=O)cc2F)c(C(F)(F)F)c1` (stereo not drawn) [Example 103, 4-{2-Fluoro-4-[2-(3-hydroxy-piperidin-1-yl)-4-oxo-4H-thiazol-5-ylidenemethyl]-phenoxy}-3-trifluoromethyl-benzonitrile], 47 nM; with `COc1cc(/C=C2\SC(NCc3ccoc3)=NC2=O)ccc1Oc1ccc(C#N)cc1C(F)(F)F` [Example 88, 4-(4-{2-[(Furan-3-ylmethyl)-amino]-4-oxo-4H-thiazol-5-ylidenemethyl}-2-methoxy-phenoxy)-3-trifluoromethyl-benzonitrile], 15 nM. For `COc1cc(/C=C2\SC(NC3CCN(C)CC3)=NC2=O)ccc1Oc1ccc(C#N)cc1C(F)(F)F` [Compound 14, 4-{2-Methoxy-4-[2-(1-methyl-piperidin-4-ylamino)-4-oxo-4H-thiazol-5-ylidenemethyl]-phenoxy}-3-trifluoromethyl-benzonitrile], the EC50 came out at 13 nM. For `COc1cc(/C=C2\SC(NCCN3CCNC(=O)C3)=NC2=O)ccc1Oc1ccc(C#N)cc1C(F)(F)F` [Example 105, 4-(2-Methoxy-4-{4-oxo-2-[2-(3-oxo-piperazin-1-yl)-ethylamino]-4H-thiazol-5-ylidenemethyl}-phenoxy)-3-trifluoromethyl-benzonitrile], the EC50 was found to be 8 nM. For `COc1cc(/C=C2\SC(N(C)C)=NC2=O)ccc1Oc1ccc(C#N)cc1C(F)(F)F` [Example 81, 4-[4-(2-Dimethylamino-4-oxo-4H-thiazol-5-ylidenemethyl)-2-methoxy-phenoxy]-3-trifluoromethyl-benzonitrile] the value was 17 nM; for `COc1cc(/C=C2\SC(N(C)CCN)=NC2=O)ccc1Oc1ccc(C#N)cc1C(F)(F)F` [Example 37, 4-(4-{2-[(2-Amino-ethyl)-methyl-amino]-4-oxo-4H-thiazol-5-ylidenemethyl}-2-methoxy-phenoxy)-3-trifluoromethyl-benzonitrile], 100 nM. With `CNC1=NC(=O)/C(=C/c2ccc(Oc3ccc(C#N)cc3C(F)(F)F)c(OC)c2)S1` [Example 77, 4-[2-Methoxy-4-(2-methylamino-4-oxo-4H-thiazol-5-ylidenemethyl)-phenoxy]-3-trifluoromethyl-benzonitrile] the figure was 16 nM; with `COc1cc(/C=C2\SC(N3CCC(C(N)=O)CC3)=NC2=O)ccc1Oc1ccc(C#N)cc1C(F)(F)F` [Example 78, 1-{5-[4-(4-Cyano-2-trifluoromethyl-phenoxy)-3-methoxy-benzylidene]-4-oxo-4,5-dihydro-thiazol-2-yl}-piperidine-4-carboxylic acid amide], 14 nM. With `COc1cc(/C=C2\SC(N3CC[C@@H](F)C3)=NC2=O)ccc1Oc1ccc(C#N)cc1C(F)(F)F` [Example 90, 4-{4-[2-(3-Fluoro-pyrrolidin-1-yl)-4-oxo-4H-thiazol-5-ylidenemethyl]-2-methoxy-phenoxy}-3-trifluoromethyl-benzonitrile] the figure was 13 nM; with `COc1cc(/C=C2\SC(N3CCNC(=O)C3)=NC2=O)ccc1Oc1ccc(Cl)cc1C(F)(F)F` [Example 61, 4-{5-[4-(4-Chloro-2-trifluoromethyl-phenoxy)-3-methoxy-benzylidene]-4-oxo-4,5-dihydro-thiazol-2-yl}-piperazin-2-one], 1 nM. With `COc1cc(/C=C2\SC(N3CCOCC3)=NC2=O)ccc1Oc1ccc(C#N)cc1C(F)(F)F` [Compound 5, 4-[2-Methoxy-4-(2-morpholin-4-yl-4-oxo-4H-thiazol-5-ylidenemethyl)-phenoxy]-3-trifluoromethyl-benzonitrile], the midpoint of the response, the EC50, lay at 20 nM. For `COc1cc(/C=C2\SC(NCCn3cccn3)=NC2=O)ccc1Oc1ccc(C#N)cc1C(F)(F)F` [Example 30, 4-{2-Methoxy-4-[4-oxo-2-(2-pyrazol-1-yl-ethylamino)-4H-thiazol-5-ylidenemethyl]-phenoxy}-3-trifluoromethyl-benzonitrile] the value was 47 nM.

`COc1cc(/C=C2\SC(N3CCN(CCO)CC3)=NC2=O)ccc1Oc1ccc(C#N)cc1C(F)(F)F` [Compound 16, 4-(4-{2-[4-(2-Hydroxy-ethyl)-piperazin-1-yl]-4-oxo-4H-thiazol-5-ylidenemethyl}-2-methoxy-phenoxy)-3-trifluoromethyl-benzonitrile]: the EC50 was 19 nM. With `COc1cc(/C=C2\SC(N3CC(C)OC(C)C3)=NC2=O)ccc1Oc1ccc(C#N)cc1C(F)(F)F` (stereo not drawn) [Example 40, 4-{4-[2-(2,6-Dimethyl-morpholin-4-yl)-4-oxo-4H-thiazol-5-ylidenemethyl]-2-methoxy-phenoxy}-3-trifluoromethyl-benzonitrile] the figure was 7 nM; with `COc1cc(/C=C2\SC(NCCOCCO)=NC2=O)ccc1Oc1ccc(C#N)cc1C(F)(F)F` [Example 69, 4-(4-{2-[2-(2-Hydroxy-ethoxy)-ethylamino]-4-oxo-4H-thiazol-5-ylidenemethyl}-2-methoxy-phenoxy)-3-trifluoromethyl-benzonitrile], 17 nM.

`N#Cc1ccc(Oc2ccc(/C=C3\SC(NCCCN4CCCC4=O)=NC3=O)cc2F)c(C(F)(F)F)c1` [Example 51, 4-(2-Fluoro-4-{4-oxo-2-[3-(2-oxo-pyrrolidin-1-yl)-propylamino]-4H-thiazol-5-ylidenemethyl}-phenoxy)-3-trifluoromethyl-benzonitrile]: the response was half-maximal at 29 nM (EC50). For `COCCNC1=NC(=O)/C(=C/c2ccc(Oc3ccc(C#N)cc3C(F)(F)F)c(OC)c2)S1` [Compound 18, 4-{2-Methoxy-4-[2-(2-methoxy-ethylamino)-4-oxo-4H-thiazol-5-ylidenemethyl]-phenoxy}-3-trifluoromethyl-benzonitrile] the value was 112 nM; for `COc1cc(/C=C2\SC(N(C)CC(O)CO)=NC2=O)ccc1Oc1ccc(Cl)cc1C(F)(F)F` (stereo not drawn) [Example 62, 5-[4-(4-Chloro-2-trifluoromethyl-phenoxy)-3-methoxy-benzylidene]-2-[(2,3-dihydroxy-propyl)-methyl-amino]-thiazol-4-one], 3 nM. For `COc1cc(/C=C2\SC(NCCN)=NC2=O)ccc1Oc1ccc(C#N)cc1C(F)(F)F` [Example 87, 4-{4-[2-(2-Amino-ethylamino)-4-oxo-4H-thiazol-5-ylidenemethyl]-2-methoxy-phenoxy}-3-trifluoromethyl-benzonitrile HCl salt] the value was 22 nM; for `COc1cc(/C=C2\SC(N)=NC2=O)ccc1Oc1ccc(C#N)cc1C(F)(F)F` [Compound 1, 4-[4-(2-Amino-4-oxo-4H-thiazol-5-ylidenemethyl)-2-methoxy-phenoxy]-3-trifluoromethyl-benzonitrile], 12 nM.
